# From paper PMC12040169 (PLOS Biology, 2025)
# Assay: in vitro
# Settings: human, hela cells, % viability
row,Compound,"viability at 28.5 h, 10 µM [%]"
1,CC[C@H]1CN(C(=O)C(C)(C)C)CC[C@H]1CC(=O)NCc1cccnc1 [CBK289135],97.8
2,C=CCNC(=O)C[C@@H]1CCN(C(=O)c2ccnc(Cl)c2)C[C@@H]1CC [CBK289136],94.3
3,CC[C@H]1CN(C(=O)c2ccnc(Cl)c2)CC[C@H]1CC(=O)NCc1ccc2c(c1)OCO2 [CBK289137],110
4,CCCNC(=O)C[C@@H]1CCN(C(=O)c2ccnc(Cl)c2)C[C@@H]1CC [CBK289138],99.3
5,CC[C@H]1CN(S(=O)(=O)c2ccccc2)CC[C@H]1CC(=O)N(C)CC#N [CBK289140],108
6,CC[C@H]1CN(S(C)(=O)=O)CC[C@H]1CC(=O)NCc1ccco1 [CBK289141],89.2
7,C=CCNC(=O)C[C@@H]1CCN(C(=O)c2cccnc2)C[C@@H]1CC [CBK289142],92.3
8,CC[C@H]1CN(C(=O)c2cccnc2)CC[C@H]1CC(=O)NCc1ccc(F)cc1 [CBK289143],88.6
9,COCc1cc(C[C@H]2CNCC[C@H]2CC(=O)N2CCc3ccccc3C2)no1 [CBK289144],88.4
10,CC(C)NC(=O)C[C@@H]1CCNC[C@@H]1Cc1cc(-c2ccccc2)on1 [CBK289147],83.7
11,O=C(C[C@@H]1CCNC[C@@H]1Cc1cc(-c2ccccc2)on1)Nc1cccc(O)c1 [CBK289149],102
12,O=C(C[C@@H]1CCNC[C@@H]1Cc1cc(-c2ccccc2)on1)N1CCN(c2ccccn2)CC1 [CBK289150],81
13,COc1ccc2c(c1)CCN=C2C[C@H]1CN(C(=O)C2CC2)CC[C@H]1CC(=O)O [CBK289154],108
14,COc1ccc2c(c1)CCN=C2C[C@H]1CN(C(=O)C(C)(C)C)CC[C@H]1CC(=O)O [CBK289155],92.5
15,O=C(O)C[C@@H]1CCN(C(=O)C2CCCCC2)C[C@@H]1CC1=NCCc2ccccc21 [CBK289158],101
16,O=C(O)C[C@@H]1CCN(C(=O)NCc2ccccc2)C[C@@H]1CC1=NCCc2ccccc21 [CBK289161],94.7
17,Cc1ccc2c(c1)C(C[C@H]1CN(C(=O)C3CCCC3)CC[C@H]1CC(=O)O)=NCC2 [CBK289163],88.5
18,CC(=O)N1CC[C@@H](CC(=O)O)[C@@H](CC2=NCCc3ccc(C(C)(C)C)cc32)C1 [CBK289165],84.4
19,O=C(O)C[C@@H]1CCN(C(=O)c2ccco2)C[C@@H]1CC1=NCCc2cc(F)ccc21 [CBK289166],91.1
20,Cc1nn(-c2ccccn2)c(C)c1[C@@H]1C=C[C@@H](NS(C)(=O)=O)C1 [CBK289169],86.8
21,Cc1nn(-c2ccccn2)c(C)c1[C@@H]1C=C[C@@H](NC(=O)CCC(=O)O)C1 [CBK289170],81.9
22,Cc1nn(CCC#N)c(C)c1[C@@H]1C=C[C@@H](NC(=O)Nc2ccccc2)C1 [CBK289173],92.9
23,Cc1nn(CCC#N)c(C)c1[C@@H]1C=C[C@@H](NC(=O)NCc2ccccc2)C1 [CBK289174],96.8
24,CC(C)(C)CC(=O)N1C[C@@H]2C[C@H](C1)c1ccc(NC(=O)Nc3ccccc3)c(=O)n1C2 [CBK289176],85.8
25,O=C(Nc1ccc2n(c1=O)C[C@@H]1CNC[C@H]2C1)c1ccncc1 [CBK289177],107

row,Compound,"viability at 28.5 h, 10 µM [%]"
1,COc1ccc(-c2ccc3n(c2=O)C[C@H]2C[C@@H]3CN(C(=O)c3ccncc3)C2)cc1 [CBK289178],90.8
2,O=C(O)CCC(=O)N1C[C@@H]2C[C@H](C1)c1ccc(-c3ccc4ccccc4c3)c(=O)n1C2 [CBK289179],107
3,COc1ccc(C(=O)N2C[C@@H]3C[C@H](C2)c2ccc(-c4cccnc4)c(=O)n2C3)cc1 [CBK289182],86.7
4,CC(C)NC(=O)N1C[C@@H]2C[C@H](C1)c1ccc(-c3cccnc3)c(=O)n1C2 [CBK289184],97.5
5,COc1ccccc1NC(=O)N1C[C@@H]2C[C@H](C1)c1ccc(-c3cncnc3)c(=O)n1C2 [CBK289186],114
6,N#Cc1ccc(C(=O)N2C[C@@H]3C[C@H](C2)c2ccc(-c4cccc(C#N)c4)c(=O)n2C3)cc1 [CBK289187],101
7,O=C(O)CCC(=O)N1C[C@@H]2C[C@H](C1)c1c(-c3ccc(Cl)cc3)ccc(=O)n1C2 [CBK289190],85.9
8,CSCC(=O)N1C[C@@H]2C[C@H](C1)c1c(-c3cncnc3)ccc(=O)n1C2 [CBK289195],79.4
9,CC(=O)Nc1ccc(-c2ccc(=O)n3c2[C@@H]2C[C@@H](CN(C(=O)C(C)(C)C)C2)C3)cc1 [CBK289199],112
10,CC(=O)Nc1ccc(-c2ccc(=O)n3c2[C@@H]2C[C@@H](CN(C4CCOCC4)C2)C3)cc1 [CBK289201],98
11,O=C(Nc1ccc2n(c1=O)C[C@H]1C[C@@H]2CN(C(=O)Cc2cccs2)C1)c1ccco1 [CBK289204],102
12,O=C(Nc1ccc2n(c1=O)C[C@H]1C[C@@H]2CN(C(=O)Nc2ccc(F)cc2)C1)c1ccco1 [CBK289205],85.4
13,CC1=C[C@@H](CNS(C)(=O)=O)[C@H](C(C)C)C[C@H]1CC(=O)Nc1ccccn1 [CBK289208],89.3
14,CC1=C[C@@H](CNC(=O)NC2CCCCC2)[C@H](C(C)C)C[C@H]1CC(=O)O [CBK289211],80.3
15,CC1=C[C@@H](CNC(=O)c2ccccn2)[C@H](C(C)C)C[C@H]1CC(=O)O [CBK289212],87.5
16,CC(=O)N1CCN(C[C@@H]2C=C(C)[C@H](Cc3nnc(C)o3)C[C@H]2C(C)C)CC1 [CBK289219],114
17,CC1=C[C@@H](CO)[C@H](C(C)C)C[C@H]1Cc1nnc(-c2ccncc2)o1 [CBK289222],110
18,CC1=C[C@@H](CO)[C@H](C(C)C)C[C@H]1Cc1nnc(Cc2c[nH]c3ccccc23)o1 [CBK289223],89.1
19,CC1=C[C@@H](CO)[C@H](C(C)C)C[C@H]1Cc1nnc(-c2ccc(N(C)C)cc2)o1 [CBK289224],65
20,CC(=O)c1ccc(NC(=O)N[C@H]2CCN3C(=O)[C@H]4CCCN4C(=O)[C@H]23)cc1 [CBK289228],108
21,CC(=O)c1ccc(NC(=O)N[C@H]2CCN3C(=O)[C@@H](Cc4ccccc4)NC(=O)[C@H]23)cc1 [CBK289229],85.9
22,COc1cccc(NC(=O)N[C@H]2CCN3C(=O)[C@@H](Cc4ccccc4)NC(=O)[C@H]23)c1 [CBK289230],94.5
23,O=C(N[C@H]1CCN2C(=O)[C@@H](Cc3ccccc3)NC(=O)[C@H]12)c1cnccn1 [CBK289231],83.6
24,O=C(N[C@H]1CCN2C(=O)[C@@H](Cc3c[nH]c4ccccc34)NC(=O)[C@H]12)c1cnccn1 [CBK289232],89.3
25,CC1(C)[C@H](Cc2cc(CO)on2)C[C@@H]1N(Cc1ccncc1)Cc1ccncc1 [CBK289233],98.2

row,Compound,"viability at 28.5 h, 10 µM [%]"
1,CS(=O)(=O)c1ccc(CN2C[C@@H]3OCC(=O)N(c4ccccc4)[C@@H]3C2)cc1 [CBK289237],93.2
2,CC(=O)Nc1ccc(CN2C[C@@H]3OCC(=O)N(C)[C@@H]3C2)cc1 [CBK289240],85.5
3,CC(=O)N[C@H]1C[C@@H](Cc2cc(CN3CCN(c4ccccc4)CC3)on2)C1(C)C [CBK289241],109
4,NC(=O)CN1C(=O)CO[C@H]2CN(Cc3cnc4ccccc4c3)C[C@H]21 [CBK289242],106
5,CC1(C)[C@H](Cc2cc(CN3CCOCC3)on2)C[C@@H]1NC(=O)C1CC1 [CBK289246],113
6,CC(C)(C)C(=O)N[C@H]1C[C@@H](Cc2cc(CN3CCOCC3)on2)C1(C)C [CBK289247],96.2
7,c1ccc(-c2cc(CC3(NCc4c[nH]c5ccccc45)COC3)no2)nc1 [CBK289250],102
8,COCc1cc(C[C@@H]2C[C@H](NC(=O)C(C)(C)C)C2(C)C)no1 [CBK289251],81.3
9,COCc1cc(C[C@@H]2C[C@H](NS(C)(=O)=O)C2(C)C)no1 [CBK289252],92.5
10,CC(C)(C)C(=O)N[C@H]1C[C@@H](Cc2cc(CO)on2)C1(C)C [CBK289260],92.1
11,Fc1ccc(-c2c[nH]c([C@@H]3COCCN3Cc3ncc[nH]3)n2)cc1 [CBK289263],95.5
12,CC(C)[C@H]1NC(=O)[C@@H]2[C@@H](NC(=O)NC3CCCCC3)CCN2C1=O [CBK289264],113
13,CSCC(=O)N1CC[C@H](NC(=O)NC2CCCCC2)[C@H]1C(=O)N1CCC[C@@H]1C(N)=O [CBK289265],124
14,COc1ccc(C(=O)N2CC[C@@H]3NC(=O)[C@H]4C[C@H](NC(=O)C5CCC5)CN4C(=O)[C@H]32)cc1 [CBK289268],111
15,CC(=O)N1CC[C@@H]2NC(=O)[C@H]3C[C@H](NC(=O)c4ccc(F)c(Cl)c4)CN3C(=O)[C@H]21 [CBK289270],87
16,Cn1cccc1C(=O)N[C@H]1C[C@@H]2C(=O)N[C@H]3CCN(C(=O)CC(C)(C)C)[C@@H]3C(=O)N2C1 [CBK289271],111
17,Cn1cccc1C(=O)N[C@H]1C[C@@H]2C(=O)N[C@H]3CCN(C(=O)C4CCCC4)[C@@H]3C(=O)N2C1 [CBK289272],97.1
18,O=C1Nc2ccc(-c3cccc(C(F)(F)F)c3)cc2C(=O)N2C[C@H](O)C[C@@H]12 [CBK289273],106
19,O=C(N[C@H]1CCN2C(=O)c3cc(-c4ccccc4F)ccc3NC(=O)[C@H]12)c1cnccn1 [CBK289274],84.7
20,COc1cccc(N2C(=O)N[C@@H]3CCN(C(=O)c4cccs4)[C@@H]3C2=O)c1 [CBK289279],82.3
21,COCC(=O)N1CC[C@@H]2[C@H]1C(=O)N(c1ccc(OC)cc1)C(=O)N2Cc1ccccc1 [CBK289280],92.9
22,COc1ccc(C(=O)N2CC[C@H]3NC(=O)N(c4ccccc4)C(=O)[C@H]32)cc1 [CBK289281],93.1
23,N#Cc1ccc(C(=O)N2CC[C@H]3NC(=O)N(c4ccccc4)C(=O)[C@H]32)cc1 [CBK289282],80.5
24,CC(C)c1ccc(N2C(=O)N[C@@H]3CCN(C(=O)c4cccs4)[C@@H]3C2=O)cc1 [CBK289286],90.7
